Reference: patent US20220330549A1, “USE OF N-BENZYLBENZAMIDE-BASED COMPOUND AS HERBICIDE” (Northwest A&F University, priority 2020, published 2022)

Experiments:
Format in all cases: in vivo
[1] = test system: Broadleaf weed; assay: Post-emergence herbicidal activity test in a paddy field; parameters: key: level scale; higher level = more weed left vs blank control; conditions: 150 g a.i./ha (penoxsulam control 250 g(a.i.)/h)
Experimental: (§1) The post-emergence herbicidal activity test was performed in a paddy field with some of the N-benzylbenzamide-based compounds of general formula I or II with reference to the method of GB/T 17980.40-2000. […] Spray treatments were performed in the stage where 4 leaves to 5 leaves were grown for the rice seedlings which was about 1 month after the sowing. Representative compounds in the examples were used to prepare emulsifiable concentrates (10%), and spray treatments were performed with the concentrates in water at a dosage of 150 g(a.i.)/ha, and repeated 4 times for each treatment, and the area was 50 m^2. 25 g/L of penoxsulam suspension was used as a control agent and applied at a dosage of 250 g(a.i.)/h. The results were investigated by a value estimating survey method 15 days and 30 days after the treatments. The relative weed population quantities were estimated by comparing each agent treated area with an adjacent blank control area, and the results of which were investigated with the following grading standard method using the overall coverage of the weed population as an indicator.
(§2) Level 2: equivalent to 0 to 2.5% of the weed in the blank control area;
(§3) Level 3: equivalent to 2.6 to 5% of the weed in the blank control area;
(§4) Level 4: equivalent to 5.1 to 10% of the weed in the blank control area;
(§5) Level 5: equivalent to 10.1 to 15% of the weed in the blank control area;
(§6) Level 6: equivalent to 15.1 to 25% of the weed in the blank control area;
(§7) Level 7: equivalent to 25.1 to 35% of the weed in the blank control area;
(§8) Level 8: equivalent to 35.1 to 67.5% of the weed in the blank control area; and
(§9) Level 9: equivalent to 67.6 to 100% of the weed in the blank control area.

[2] = test system: Gramineae; assay: as above; parameters: key: level scale; higher level = more weed left vs blank control; conditions: 150 g a.i./ha (penoxsulam control 250 g(a.i.)/h)
Experimental: as §1, §2, §3, §4, §5, §6, §7, §8, §9

[3] = test system: Cyperaceae; assay: as above; parameters: key: level scale; higher level = more weed left vs blank control; conditions: 150 g a.i./ha (penoxsulam control 250 g(a.i.)/h)
Experimental: as §1, §2, §3, §4, §5, §6, §7, §8, §9

[4] = test system: Barnyard grass; assay: Herbicidal activity test for indoor post-emergence spraying on stems and leaves; parameters: key: grade level by weed remaining vs blank control, e.g. 5 = 10.1-15%; conditions: 150 g a.i./ha, visual inspection 21 days after treatment
Experimental: (§10) The post-emergence herbicidal activity test was performed with some of the N-benzylbenzamide-based compounds of general formula I or II with reference to the method of NY/T 1155.4-2006. […] After the sowing, the weed was moved to a greenhouse for regular cultivation. […] Then, the results were investigated by visual inspection 21 days after the treatments. […] Level 5: equivalent to 10.1 to 15% of the weed in the blank control area; Level 6: equivalent to 15.1 to 25% of the weed in the blank control area; Level 7: equivalent to 25.1 to 35% of the weed in the blank control area; Level 8: equivalent to 35.1 to 67.5% of the weed in the blank control area; and […]

[5] = test system: Amaranthus retroflexus; assay: as above; parameters: key: grade level by weed remaining vs blank control, e.g. 5 = 10.1-15%; conditions: 150 g a.i./ha, visual inspection 21 days after treatment
Experimental: as §10

[6] = test system: Humulus scandens; assay: as above; parameters: key: grade level by weed remaining vs blank control, e.g. 5 = 10.1-15%; conditions: 150 g a.i./ha, visual inspection 21 days after treatment
Experimental: as §10

[7] = test system: Piemarker; assay: as above; parameters: key: grade level by weed remaining vs blank control, e.g. 5 = 10.1-15%; conditions: 150 g a.i./ha, visual inspection 21 days after treatment
Experimental: as §10

[8] = test system: green bristlegrass; assay: as above; parameters: key: grade level by weed remaining vs blank control, e.g. 5 = 10.1-15%; conditions: 150 g a.i./ha, visual inspection 21 days after treatment
Experimental: as §10

[9] = test system: Digitaria sanguinalis; assay: as above; parameters: key: grade level by weed remaining vs blank control, e.g. 5 = 10.1-15%; conditions: 150 g a.i./ha, visual inspection 21 days after treatment
Experimental: as §10

[10] = test system: Barnyard grass; assay: Herbicidal activity test for indoor pre-emergence soil treatment; parameters: key: level 1-9; higher = more weed remaining vs blank control; conditions: 150 g a.i./ha, visual inspection 21 days after treatment
Experimental: (§11) The herbicidal activity test for indoor pre-emergence soil treatment was performed with some of the N-benzylbenzamide-based compounds of general formula I or II with reference to the method of NY/T 1155.3-2006. Neutral sandy loam soil having an organic content of ≤2% was added to fill ⅘ of the pot, and the soil was completely moistened by infiltrating irrigation from the bottom of the pot. The seeds of the test weed were evenly spread on the soil surface, and then covered by 0.5 cm to 2.0 cm of soil depending on the seed size. Representative compounds in the examples were used to prepare emulsifiable concentrates (10%), and spray treatments to the soil were performed 24 hours after the sowing with the test agents diluted with water, at a spraying dosage of 150 g(a.i.)/ha. Then, the results were investigated by visual inspection 21 days after the treatments. The herbicidal activity of the agent was evaluated on a scale of 1-9 levels according to the symptoms and severity of damage to the test weeds.
as §2, §3, §4, §5, §6, §7, §8, §9

[11] = test system: Piemarker; assay: as above; parameters: key: level 1-9; higher = more weed remaining vs blank control; conditions: 150 g a.i./ha, visual inspection 21 days after treatment
Experimental: as §11, §2, §3, §4, §5, §6, §7, §8, §9

[12] = test system: green bristlegrass; assay: as above; parameters: key: level 1-9; higher = more weed remaining vs blank control; conditions: 150 g a.i./ha, visual inspection 21 days after treatment
Experimental: as §11, §2, §3, §4, §5, §6, §7, §8, §9

[13] = test system: Amaranthus retroflexus; assay: as above; parameters: key: 1-9 levels; higher = more weed remaining vs blank control; conditions: 150 g a.i./ha, visual inspection 21 days after treatment
Experimental: as §11, §2, §3, §4, §5, §6, §7, §8, §9

[14] = test system: Digitaria sanguinalis; assay: as above; parameters: key: 1-9 levels; higher = more weed remaining vs blank control; conditions: 150 g a.i./ha, visual inspection 21 days after treatment
Experimental: as §11, §2, §3, §4, §5, §6, §7, §8, §9

[15] = test system: Humulus scandens; assay: as above; conditions: 150 g a.i./ha, visual inspection 21 days after treatment
Experimental: as §11, §2, §3, §4, §5, §6, §7, §8, §9

[16] = test system: nutgrass flatsedge; assay: Field test for weed control in a corn field; conditions: for Post-emergence weed control effect, Nutgrass flatsedge: 150 g a.i./ha, after treatment
Experimental: (§12) The weed control efficacy field test was performed in a corn field with some of the N-benzylbenzamide-based compounds of general formula I or II with reference to the method of GB/T 17980.42-2000. […] Spray treatments were performed in the stage where 2 leaves to 5 leaves were grown for the corns after the sowing. Representative compounds in the examples were used to prepare emulsifiable concentrates (10%), and spray treatments were performed with the concentrates in water at a dosage of 150 g(a.i.)/ha, and repeated 4 times for each treatment, and the area was 20 m^2. Oil dispersion with 25% of mesotrione was used as a control agent and applied at a dosage of 150 g(a.i.)/h. […] The herbicidal activities of the agents were evaluated on a scale of 1-9 levels according to the symptoms and severity of damage to the test weeds.
as §2, §3, §4, §5, §6, §7, §8, §9

[17] = test system: Portulaca oleracea; assay: Field test for weed control in a corn field; conditions: for Post-emergence weed control effect, Portulaca oleracea: 150 g a.i./ha, after treatment
Experimental: as §12, §2, §3, §4, §5, §6, §7, §8, §9

[18] = test system: Solanum nigrum; assay: Field test for weed control in a corn field; conditions: for Post-emergence weed control effect, Solanum nigrum: 150 g a.i./ha, 30 days after treatment
Experimental: as §12, §2, §3, §4, §5, §6, §7, §8, §9

[19] = test system: Barnyard grass; assay: Field test for weed control in a corn field; conditions: for Post-emergence weed control effect, Barnyard grass: 150 g a.i./ha, 30 days after treatment
Experimental: as §12, §2, §3, §4, §5, §6, §7, §8, §9

[20] = test system: Amaranthus retroflexus; assay: Field test for weed control in a corn field; conditions: for Post-emergence weed control effect, Amaranthus retroflexus: 150 g a.i./ha, 30 days after treatment
Experimental: as §12, §2, §3, §4, §5, §6, §7, §8, §9

[21] = test system: Acalypha australis; assay: Field test for weed control in a corn field; conditions: for Post-emergence weed control effect, Acalypha australis: 150 g a.i./ha, after treatment
Experimental: as §12, §2, §3, §4, §5, §6, §7, §8, §9

[22] = test system: Convolvulus arvensis; assay: Field test for weed control in a corn field; conditions: for Post-emergence weed control effect, Convolvulus arvensis: 150 g a.i./ha, after treatment
Experimental: as §12, §2, §3, §4, §5, §6, §7, §8, §9

[23] = test system: goosegrass; assay: Field test for weed control in a corn field; conditions: for Post-emergence weed control effect, Goose grass: 150 g a.i./ha, after treatment
Experimental: as §12, §2, §3, §4, §5, §6, §7, §8, §9

[24] = test system: green bristlegrass; assay: Field test for weed control in a corn field; conditions: for Post-emergence weed control effect, Green bristlegrass: 150 g a.i./ha, after treatment
Experimental: as §12, §2, §3, §4, §5, §6, §7, §8, §9

[25] = test system: Chenopodium album; assay: Field test for weed control in a corn field; conditions: for Post-emergence weed control effect, Chenopodium album: 150 g a.i./ha, after treatment
Experimental: as §12, §2, §3, §4, §5, §6, §7, §8, §9

[26] = test system: Digitaria sanguinalis; assay: Field test for weed control in a corn field; conditions: for Post-emergence weed control effect, Digitaria sanguinalis: 150 g a.i./ha, after treatment
Experimental: as §12, §2, §3, §4, §5, §6, §7, §8, §9

[27] = 150 g(a.i.)/ha, 21 days after treatments

SMILES	Herbicidal activity 15 days after treatment Broadleaf weed [1]	Herbicidal activity 30 days after treatment Broadleaf weed [1]	Herbicidal activity 15 days after treatment Gramineae [2]	Herbicidal activity 30 days after treatment Gramineae [2]	Herbicidal activity 15 days after treatment Cyperaceae [3]	Herbicidal activity 30 days after treatment Cyperaceae [3]	Herbicidal Activity Barnyard grass [4]	Herbicidal Activity Amaranthus retroflexus [5]	Herbicidal Activity Humulus scandens [6]	Herbicidal Activity Piemarker [7]	Herbicidal Activity Green bristlegrass [8]	Herbicidal Activity Digitaria sanguinalis [9]	Herbicidal Activity Barnyard grass [10]	Herbicidal Activity Piemarker [11]	Herbicidal Activity Green bristlegrass [12]	Herbicidal Activity Amaranthus retroflexus [13]	Herbicidal Activity Digitaria sanguinalis [14]	Herbicidal Activity Humulus scandens [15]	Post-emergence weed control effect, Nutgrass flatsedge [16]	Post-emergence weed control effect, Portulaca oleracea [17]	other results
COc1ccc(OC)c(C(=O)NCc2cccc(C)c2)c1 [Compound A35]	1	2 (equivalent to 0 to 2.5% of the weed in the blank control area)	2 (equivalent to 0 to 2.5% of the weed in the blank control area)	1	1	2 (equivalent to 0 to 2.5% of the weed in the blank control area)	1	1	1	1	1	1	1	1	1	1	2 (equivalent to 0 to 2.5% of the weed in the blank control area)	2 (equivalent to 0 to 2.5% of the weed in the blank control area)	2 (equivalent to 0 to 2.5% of the weed in the blank control area)	1	Post-emergence weed control effect, Solanum nigrum [18]: 2 (equivalent to 0 to 2.5% of the weed in the blank control area); Post-emergence weed control effect, Barnyard grass [19]: 1; Post-emergence weed control effect, Amaranthus retroflexus [20]: 1; Post-emergence weed control effect, Acalypha australis [21]: 2 (equivalent to 0 to 2.5% of the weed in the blank control area); Post-emergence weed control effect, Convolvulus arvensis [22]: 2 (equivalent to 0 to 2.5% of the weed in the blank control area); Post-emergence weed control effect, Goose grass [23]: 2 (equivalent to 0 to 2.5% of the weed in the blank control area); Post-emergence weed control effect, Green bristlegrass [24]: 2 (equivalent to 0 to 2.5% of the weed in the blank control area); Post-emergence weed control effect, Chenopodium album [25]: 1; Post-emergence weed control effect, Digitaria sanguinalis [26]: 2 (equivalent to 0 to 2.5% of the weed in the blank control area)
Cc1cccc(CNC(=O)c2cccc(C)c2)c1 [Compound B14, 3-methyl-N-(3-methylbenzyl)benzamide]	1	1	1	1	1	1	1	1	1	1	1	1	1	1	1	2 (equivalent to 0 to 2.5% of the weed in the blank control area)	2 (equivalent to 0 to 2.5% of the weed in the blank control area)	3 (equivalent to 2.6 to 5% of the weed in the blank control area)	1	1	controlling effect on nutgrass flatsedge [16, 27]: 1; controlling effect on Portulaca oleracea [17, 27]: 1; Post-emergence weed control effect, Solanum nigrum [18]: 1; controlling effect on Solanum nigrum [18, 27]: 1; Post-emergence weed control effect, Barnyard grass [19]: 1; controlling effect on barnyard grass [19, 27]: 1; Post-emergence weed control effect, Amaranthus retroflexus [20]: 1; controlling effect on Amaranthus retroflexus [20, 27]: 1; Post-emergence weed control effect, Acalypha australis [21]: 1; controlling effect on Acalypha australis [21, 27]: 1; Post-emergence weed control effect, Convolvulus arvensis [22]: 1; controlling effect on Convolvulus arvensis [22, 27]: 1; Post-emergence weed control effect, Goose grass [23]: 1; controlling effect on goosegrass [23, 27]: 1; Post-emergence weed control effect, Green bristlegrass [24]: 1; controlling effect on green bristlegrass [24, 27]: 1; Post-emergence weed control effect, Chenopodium album [25]: 1; controlling effect on Chenopodium album [25, 27]: 1; Post-emergence weed control effect, Digitaria sanguinalis [26]: 1; controlling effect on Digitaria sanguinalis [26, 27]: 1
